Assay [1] has as its target T1, GPR17 (Homo sapiens, UniProt Q13304). In words: Calcium mobilization functional assay (GPR17 Ca2+ assay). Particulars: CHO hGPR17 cells, inhibition of 50 nM MDL29,951, Calcium 5 dye, FLIPR; read-out: Ca2+ assay pIC50 (converted). The assay is classed as cell-based. The arrangement: host or cells: Flp-In T-REx CHO. In short, it runs like this: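 pIC50 values were fitted with a 4-parameter logistic curve. They reflect test-compound inhibition of cytosolic Ca2+ release evoked by 50 nM MDL29,951, tracked as Calcium 5 fluorescence at room temperature. Cells were CHO Flp-In T-REx stably carrying human GPR17, induced with doxycycline 1 μg/mL for 16-20 h.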
On the technique in general: Calcium flux is commonly read through the fluorescence of an indicator in the cells.

The target in assay [2] is T1, GPR17. Kind of assay: cAMP accumulation functional assay (HTRF, Schild analysis). The assay is classed as cell-based. The arrangement: host or cells: Flp-In T-REx CHO. Particulars: CHO hGPR17 cells, Schild analysis vs MDL29,951, 5 μM forskolin, read-out: cAMP assay pA2 (converted). How it is done:
Flp-In T-REx CHO cells stably expressing human GPR17 receptor (CHO hGPR17) from Evi Kostenis' lab (Bonn University, Germany) were cultured at 37° C. in a humidified atmosphere of 5% CO2. Cells were grown in DMEM with Nutrient Mixture F-12 supplemented with hygromycin B (500 μg/mL) and blasticidin (30 μg/mL). Expression from the Flp-In locus was induced by treatment with doxycycline (1 μg/mL) for 16-20 h prior assays.
GPR17 activation can also recruit Gi-type G-protein signaling, resulting in a decrease of intracellular cyclic adenosine monophosphate (cAMP). Intracellular cAMP changes can be measured using the HTRF cAMP dynamic assay kit from CisBio (Codolet, France). Using homogenous time-resolved fluorescence technology (HTRF), the assay is based on competition between native cAMP produced by cells and cAMP labelled with the dye d2. The tracer binding was determined by an anti-cAMP antibody labeled with cryptate.
CHO hGPR17 were detached with PBS containing EDTA and dispatched in black 384-well plates with 5,000 cells per well. Cells were first incubated for 30 minutes at room temperature in HBSS Hepes (pH 7.4) containing vehicle or varying concentrations of test GPR17 antagonist/inverse agonist compounds. […] After 60 minutes incubation at room temperature, the reaction is terminated and the cells lysed by adding the d2 detection reagent and the cryptate reagent in 10 μL lysis buffer each according to manufacturer's instructions. After 60 minutes incubation, changes in cAMP concentrations are measured according to manufacturer's instructions using an Envision plate reader with laser excitation. All incubations were performed in duplicate. Data was analyzed using GraphPad Prism software using the 4-parameter logistic equation to measure MDL29,951 pEC50s in absence and presence of GPR17 antagonist/inverse agonist test compounds. Dose ratio (DR) were plotted against antagonist concentrations and Schild analysis provided estimated affinity pA2 of GPR17 antagonist/inverse agonist test compounds.
The activities of the Example compounds tested are depicted in the table below. The activity ranges A, B and C refer to pA2 values in the cAMP assay as follows: “A”: pA2<7.5, “B”: pA2 7.5<x≤8.5, “C”: pA2>8.5.
(Changes in cAMP serve as a functional read-out for many G protein-coupled receptors.)

A value given as a limit tells only on which side of the number the result lay.

The results in this text go back to patent US12071404B2, “Aza (indole)-, benzothiophene-, and benzofuran-3-sulfonamides” (UCB Pharma GmbH, priority 2016, dated 2024).

T1 sequence (Q13304 whole entry): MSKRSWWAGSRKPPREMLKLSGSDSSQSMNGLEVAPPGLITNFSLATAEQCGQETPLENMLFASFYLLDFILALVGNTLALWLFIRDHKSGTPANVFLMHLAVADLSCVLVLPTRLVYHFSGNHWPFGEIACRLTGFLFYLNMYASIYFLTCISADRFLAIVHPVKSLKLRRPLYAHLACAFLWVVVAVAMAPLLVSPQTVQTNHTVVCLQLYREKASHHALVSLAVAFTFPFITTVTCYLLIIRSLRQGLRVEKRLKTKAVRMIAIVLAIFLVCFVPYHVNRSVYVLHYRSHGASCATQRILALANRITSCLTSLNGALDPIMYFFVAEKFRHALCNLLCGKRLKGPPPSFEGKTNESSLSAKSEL

Consider `N#Cc1ccc(NS(=O)(=O)c2c[nH]c3cc(OCc4ccccc4)ccc23)c(F)c1` [Compound I-154, 6-(benzyloxy)-N-(4-cyano-2-fluorophenyl)-1H-indole-3-sulfonamide], for which the IC50 at GPR17 [1] was below 3.16 nM. Further, on GPR17 [2], the Kb is 3.16 to 31.6 nM.

As to `N#CCCc1cc(F)c(NS(=O)(=O)c2c[nH]c3c2ccc2cccnc23)cc1F` [Compound I-362, N-[4-(2-cyanoethyl)-2,5-difluorophenyl]-1H-pyrrolo[3,2-h]quinoline-3-sulfonamide], the IC50 on GPR17 [1] is 3.16 to 31.6 nM. Also, the Kb at GPR17 [2] is below 3.16 nM.

Take `N#Cc1ccc(NS(=O)(=O)c2c[nH]c3c2ccc2ccccc23)c(F)c1` [Compound I-152, N-(4-cyano-2-fluorophenyl)-1H-benzo[g]indole-3-sulfonamide]: the IC50 at GPR17 [1] is below 3.16 nM. Besides, at GPR17 [2], the Kb was below 3.16 nM.

`N#CCOc1cc(F)c(NS(=O)(=O)c2c[nH]c3cc(Cl)ccc23)cc1F` [Compound I-257, 6-chloro-N-[4-(cyanomethoxy)-2,5-difluorophenyl]-1H-indole-3-sulfonamide]: the IC50 at GPR17 [1] is below 3.16 nM. Further, the Kb on GPR17 [2] is below 3.16 nM.

For the compound `N#Cc1ccc(NS(=O)(=O)c2c[nH]c3cc(-c4ccsc4)ccc23)c(F)c1` [Compound I-230, N-(4-cyano-2-fluorophenyl)-6-(thiophen-3-yl)-1H-indole-3-sulfonamide], the IC50 on GPR17 [1] is 3.16 to 31.6 nM. Moreover, the Kb at GPR17 [2] was 3.16 to 31.6 nM.

On to `O=S(=O)(Nc1cccc(F)c1Cl)c1c[nH]c2nc(Br)ccc12` [Compound I-83, 6-bromo-N-(2-chloro-3-fluoorphenyl)-1H-pyrrolo[2,3-b]pyridine-3-sulfonamide], for which the IC50 on GPR17 [1] was 3.16 to 31.6 nM. In addition, on GPR17 [2], the Kb was 3.16 to 31.6 nM.

`O=S(=O)(Nc1ncc(Cl)cc1F)c1c[nH]c2c1ccc1ccccc12` [Compound I-191, N-(5-chloro-3-fluoropyridin-2-yl)-1H-benzo[g]indole-3-sulfonamide]: the IC50 on GPR17 [1] is 3.16 to 31.6 nM. The Kb on GPR17 [2] was below 3.16 nM.

Take `N#Cc1ccc(NS(=O)(=O)c2c[nH]c3nc(Br)ccc23)c(F)c1` [Compound I-177, 6-bromo-N-(4-cyano-2-fluorophenyl)-1H-pyrrolo[2,3-b]pyridine-3-sulfonamide]: the IC50 on GPR17 [1] is below 3.16 nM. Moreover, on GPR17 [2], the Kb was below 3.16 nM.

With `COCCCc1cc(F)c(NS(=O)(=O)c2c[nH]c3cc(Cl)ccc23)nc1F` [Compound I-253, 6-chloro-N-[3,6-difluoro-5-(3-methoxypropyl)pyridin-2-yl]-1H-indole-3-sulfonamide], the IC50 on GPR17 [1] is below 3.16 nM. The Kb on GPR17 [2] was below 3.16 nM.

With `Cc1c(Br)ccc2c(S(=O)(=O)Nc3ncc(Cl)cc3F)c[nH]c12` [Compound I-326, 6-bromo-N-(5-chloro-3-fluoropyridin-2-yl)-7-methyl-1H-indole-3-sulfonamide], the IC50 on GPR17 [1] was 3.16 to 31.6 nM. For the same compound, the Kb at GPR17 [2] was below 3.16 nM.

`COc1cc(C(F)(F)F)cnc1NS(=O)(=O)c1c[nH]c2cc(Cl)ccc12` [Compound I-344, 6-chloro-N-[3-methoxy-5-(trifluoromethyl)pyridin-2-yl]-1H-indole-3-sulfonamide]: the IC50 at GPR17 [1] was 3.16 to 31.6 nM. The Kb at GPR17 [2] is 3.16 to 31.6 nM.

On to `COc1nc(NS(=O)(=O)c2coc3cc(Cl)ccc23)c(F)cc1Cl` [Compound I-346, 6-chloro-N-(5-chloro-3-fluoro-6-methoxypyridin-2-yl)-1-benzofuran-3-sulfonamide], for which the IC50 on GPR17 [1] is 3.16 to 31.6 nM. The Kb at GPR17 [2] was 3.16 to 31.6 nM.

Take `CCc1cc(F)c(NS(=O)(=O)c2c[nH]c3cc(Cl)ccc23)nc1F` [Compound I-338, 6-chloro-N-(5-ethyl-3,6-difluoropyridin-2-yl)-1H-indole-3-sulfonamide]: on GPR17 [1], the IC50 is below 3.16 nM. The Kb on GPR17 [2] was below 3.16 nM.

As for `C#Cc1ccc(NS(=O)(=O)c2c[nH]c3cc(Cl)ccc23)c(F)c1` [Compound I-210, 6-chloro-N-(4-ethynyl-2-fluorophenyl)-1H-indole-3-sulfonamide], the IC50 at GPR17 [1] was 3.16 to 31.6 nM. Further, on GPR17 [2], the Kb is below 3.16 nM.

For `O=S(=O)(Nc1cc(F)c(Br)cc1F)c1c[nH]c2c1ccc1cccnc12` [Compound I-305, N-(4-bromo-2,5-difluorophenyl)-1H-pyrrolo[3,2-h]quinoline-3-sulfonamide], the IC50 on GPR17 [1] is below 3.16 nM. Moreover, the Kb at GPR17 [2] is below 3.16 nM.

As for `O=S(=O)(Nc1nc(F)c(Cl)cc1F)c1c[nH]c2nc(Cl)ccc12` [Compound I-307, 6-chloro-N-(5-chloro-3,6-difluoropyridin-2-yl)-1H-pyrrolo[2,3-b]pyridine-3-sulfonamide], the IC50 on GPR17 [1] was 3.16 to 31.6 nM. Besides, the Kb at GPR17 [2] was 3.16 to 31.6 nM.

In the case of `COc1nc(NS(=O)(=O)c2c[nH]c3c(Cl)c(F)ccc23)c(F)cc1Cl` [Compound I-357, 7-chloro-N-(5-chloro-3-fluoro-6-methoxypyridin-2-yl)-6-fluoro-1H-indole-3-sulfonamide], the IC50 at GPR17 [1] is 3.16 to 31.6 nM. Moreover, the Kb on GPR17 [2] is 3.16 to 31.6 nM.

As to `N#Cc1ccc(NS(=O)(=O)c2c[nH]c3cc(C4CC4)ccc23)cc1` [Compound I-133, N-(4-cyanophenyl)-6-cyclopropyl-1H-indole-3-sulfonamide], the IC50 on GPR17 [1] is below 3.16 nM. The Kb on GPR17 [2] was 3.16 to 31.6 nM.

For `CCOC(=O)CCc1cc(F)c(NS(=O)(=O)c2c[nH]c3cc(Cl)ccc23)nc1F` [Compound I-331, ethyl 3-(6-{[(6-chloro-1H-indol-3-yl)sulfonyl]amino}-2,5-difluoropyridin-3-yl)propanoate], the IC50 at GPR17 [1] was below 3.16 nM. For the same compound, the Kb at GPR17 [2] is below 3.16 nM.

For the compound `O=S(=O)(Nc1cc(F)c(OC(F)F)cc1F)c1c[nH]c2nc(C(F)F)ccc12` [Compound I-363, N-[4-(difluoromethoxy)-2,5-difluorophenyl]-6-(difluoromethyl)-1H-pyrrolo[2,3-b]pyridine-3-sulfonamide], the IC50 on GPR17 [1] is 3.16 to 31.6 nM. Also, the Kb at GPR17 [2] was 3.16 to 31.6 nM.

With `COc1ccc2c(S(=O)(=O)Nc3ccc(Cl)cc3F)c[nH]c2c1` [Compound I-69, N-(4-chloro-2-fluorophenyl)-6-methoxy-1H-indole-3-sulfonamide], on GPR17 [1], the IC50 is above 31.6 nM. Further, at GPR17 [2], the Kb is above 31.6 nM.

Turning to `O=S(=O)(Nc1cc(OC(F)F)c(Cl)cc1F)c1c[nH]c2cc(Cl)ccc12` [Compound I-195, 6-chloro-N-[4-chloro-5-(difluoromethoxy)-2-fluorophenyl]-1H-indole-3-sulfonamide], at GPR17 [1], the IC50 was 3.16 to 31.6 nM. Also, at GPR17 [2], the Kb is below 3.16 nM.

On to `O=S(=O)(Nc1cc(F)c(F)cc1F)c1c[nH]c2nc(Br)ccc12` [Compound I-95, 6-bromo-N-(2,4,5-trifluorophenyl)-1H-pyrrolo[2,3-b]pyridine-3-sulfonamide], for which the IC50 on GPR17 [1] is 3.16 to 31.6 nM. Moreover, the Kb at GPR17 [2] was 3.16 to 31.6 nM.

For the compound `COc1nc(NS(=O)(=O)c2c[nH]c3cc(Cl)ccc23)c(F)cc1Cl` [Compound I-254, 6-chloro-N-(5-chloro-3-fluoro-6-methoxypyridin-2-yl)-1H-indole-3-sulfonamide], on GPR17 [1], the IC50 was below 3.16 nM. For the same compound, on GPR17 [2], the Kb was below 3.16 nM.

`COc1cc(F)c(NS(=O)(=O)c2c[nH]c3cc(Cl)ccc23)cc1F` [Compound I-298, 6-chloro-N-(2,5-difluoro-4-methoxyphenyl)-1H-indole-3-sulfonamide]: the IC50 on GPR17 [1] is 3.16 to 31.6 nM. In addition, at GPR17 [2], the Kb was 3.16 to 31.6 nM.

Take `O=S(=O)(Nc1cc(F)cc(F)c1Cl)c1c[nH]c2cc(Cl)ccc12` [Compound I-55, 6-chloro-N-(2-chloro-3,5-difluorophenyl)-1H-indole-3-sulfonamide]: on GPR17 [1], the IC50 is 3.16 to 31.6 nM. Besides, the Kb on GPR17 [2] is 3.16 to 31.6 nM.

Regarding `CC(C)c1ccc2c(S(=O)(=O)Nc3ccc(C#N)cc3F)c[nH]c2c1` [Compound I-170, N-(4-cyano-2-fluorophenyl)-6-(propan-2-yl)-1H-indole-3-sulfonamide], the IC50 on GPR17 [1] is below 3.16 nM. Also, the Kb at GPR17 [2] was below 3.16 nM.

`O=C1OCc2ccc(NS(=O)(=O)c3c[nH]c4nc(Br)ccc34)cc21` [Compound I-92, 6-bromo-N-(3-oxo-1,3-dihydro-2-benzofuran-5-yl)-1H-pyrrolo[2,3-b]pyridine-3-sulfonamide]: the IC50 on GPR17 [1] was above 31.6 nM. Moreover, the Kb on GPR17 [2] was above 31.6 nM.
